# From US6737383B1, “Herbicidal oxadiazolidines” (priority 1999, dated 2004)
# Tests used:
# bedstraw = assay: Test B pre/postemergence bedstraw; format: in vivo, Galium aparine
# Method in brief: (§1)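 Herbicidal effect was estimated by eye on a ten-point control scale after plants spent twelve to sixteen days in a greenhouse following soil or foliar treatment. Foliar sprays targeted plants at one to four leaves; all doses were formulated in a non-phytotoxic solvent with surfactant.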
# blackgrass = assay: Test B pre/postemergence blackgrass; format: in vivo, Alopecurus myosuroides
# Method in brief: as §1
# surinam grass = assay: Test B pre/postemergence surinam grass; format: in vivo, Brachiaria decumbens
# Method in brief: as §1
# cocklebur = assay: Test B pre/postemergence cocklebur; format: in vivo, Xanthium strumarium
# Method in brief: as §1
# corn = assay: Test B pre/postemergence corn; format: in vivo, Zea mays
# Method in brief: as §1
# crabgrass = assay: Test B pre/postemergence crabgrass; format: in vivo, Digitaria sanguinalis
# Method in brief: as §1
# giant foxtail = assay: Test B pre/postemergence giant foxtail; format: in vivo, Setaria faberii
# Method in brief: as §1
# morningglory = assay: Test B pre/postemergence morningglory; format: in vivo, Ipomoea hederacea
# Method in brief: as §1
# pigweed = assay: Test B pre/postemergence pigweed; format: in vivo, Amaranthus retroflexus; settings: for Plant response rating, Redroot pigweed: Postemergence
# Method in brief: as §1
# rape = assay: Test B pre/postemergence rape; format: in vivo, Brassica napus
# Method in brief: as §1
# soybean = assay: Test B pre/postemergence soybean; format: in vivo, Glycine max; settings: for Plant response rating, Soybean: Postemergence
# Method in brief: as §1
# sugar beet = assay: Test B pre/postemergence sugar beet; format: in vivo, Beta vulgaris; settings: for Plant response rating, Sugarbeets: Postemergence
# Method in brief: as §1
# velvetleaf = assay: Test B pre/postemergence velvetleaf; format: in vivo, Abutilon theophrasti; settings: for Plant response rating, Velvetleaf: Postemergence
# Method in brief: as §1
# wheat = assay: Test B pre/postemergence wheat; format: in vivo, Triticum aestivum; settings: for Plant response rating, Wheat: Postemergence
# Method in brief: as §1
# wild oat = assay: Test B pre/postemergence wild oat; format: in vivo, Avena fatua; settings: for Plant response rating, Wild oats: Postemergence
# Method in brief: as §1
# purple nutsedge = assay: Test B pre/postemergence purple nutsedge; format: in vivo, Cyperus rotundus
# Method in brief: as §1
# [1] = Postemergence, Rate 62 g/ha, scale of 0 to 10, 0 is no effect, 10 is complete control
# [2] = Preemergence, Rate 62 g/ha, scale 0 to 10 (0 no effect, 10 complete control)
# [3] = Preemergence, Rate 125 g/ha, scale 0 to 10, 0 is no effect, 10 is complete control
# [4] = Preemergence, Rate 500 g/ha, scale of 0 to 10 where 0 is no effect and 10 is complete control
# [5] = Rate 250 g/ha, Postemergence, scale of 0 to 10 where 0 is no effect and 10 is complete control
# [6] = Postemergence, Rate 125 g/ha, scale 0 to 10, 0 is no effect, 10 is complete control
# [7] = Postemergence, Rate 500 g/ha, scale of 0 to 10 where 0 is no effect and 10 is complete control
# [8] = Rate 500 g/ha, scale of 0 to 10 where 0 is no effect and 10 is complete control
# [9] = Rate 250 g/ha, scale of 0 to 10 where 0 is no effect and 10 is complete control
compound,measurement,setting,value
COC(=O)CCCn1c(=O)on(C(=O)N(c2ccccc2)C(C)C)c1=O [Compound 572],Bedstraw plant response rating,bedstraw; [1],0
same,Bedstraw plant response rating,bedstraw; [2],0
same,Bedstraw plant response rating,bedstraw; [3],0
same,Bedstraw plant response rating (0 to 10 scale),"bedstraw; Preemergence, Rate 250 g/ha",0
same,Bedstraw plant response rating,bedstraw; [4],0
same,"Plant response rating, Bedstraw",bedstraw; [5],0
same,Blackgrass plant response rating,blackgrass; [1],0
same,Blackgrass plant response rating,blackgrass; [6],0
same,"Plant response rating, Blackgrass",blackgrass; [7],0
same,Blackgrass plant response rating,blackgrass; [2],0
same,Blackgrass plant response rating,blackgrass; [3],0
same,Blackgrass plant response rating (0 to 10 scale),"blackgrass; Preemergence, Rate 250 g/ha",0
same,Blackgrass plant response rating,blackgrass; [4],0
same,"Plant response rating, Blackgrass",blackgrass; [5],0
same,B. signalgrass plant response rating,surinam grass; [1],0
same,B. signalgrass plant response rating,surinam grass; [6],0
same,"Plant response rating, B. signalgrass",surinam grass; [7],0
same,B. signalgrass plant response rating,surinam grass; [2],0
same,B. signalgrass plant response rating,surinam grass; [3],0
same,"B. signalgrass plant response rating (0 to 10 scale, 0 is no effect, 10 is complete control)","surinam grass; Preemergence, Rate 250 g/ha",0
same,B. signalgrass plant response rating,surinam grass; [4],0
same,"Plant response rating, B. signalgrass",surinam grass; [5],0
same,Cocklebur plant response rating,cocklebur; [1],0
same,Cocklebur plant response rating,cocklebur; [6],0
same,"Plant response rating, Cocklebur",cocklebur; [7],0
same,Cocklebur plant response rating,cocklebur; [2],0
same,Cocklebur plant response rating,cocklebur; [3],0
same,Cocklebur plant response rating (0 to 10 scale),"cocklebur; Preemergence, Rate 250 g/ha",0
same,Cocklebur plant response rating,cocklebur; [4],0
same,"Plant response rating, Cocklebur",cocklebur; [5],0
same,Corn plant response rating,corn; [1],0
same,Corn plant response rating,corn; [6],0
same,"Plant response rating, Corn",corn; [7],0
same,Corn plant response rating,corn; [2],0
same,Corn plant response rating,corn; [3],0
same,Corn plant response rating (0 to 10 scale),"corn; Preemergence, Rate 250 g/ha",0
same,Corn plant response rating,corn; [4],0
same,"Plant response rating, Corn",corn; [5],0
same,Crabgrass plant response rating,crabgrass; [1],0
same,Crabgrass plant response rating,crabgrass; [6],0
same,"Plant response rating, Crabgrass",crabgrass; [7],8
same,Crabgrass plant response rating,crabgrass; [2],0
same,Crabgrass plant response rating,crabgrass; [3],0
same,Crabgrass plant response rating (0 to 10 scale),"crabgrass; Preemergence, Rate 250 g/ha",0
same,Crabgrass plant response rating,crabgrass; [4],0
same,"Plant response rating, Crabgrass",crabgrass; [5],6
same,Giant foxtail plant response rating,giant foxtail; [1],0
same,Giant foxtail plant response rating,giant foxtail; [6],0
same,"Plant response rating, Giant foxtail",giant foxtail; [7],0
same,Giant foxtail plant response rating,giant foxtail; [2],0
same,Giant foxtail plant response rating,giant foxtail; [3],0
same,Giant foxtail plant response rating (0 to 10 scale),"giant foxtail; Preemergence, Rate 250 g/ha",4
same,Giant foxtail plant response rating,giant foxtail; [4],7
same,"Plant response rating, Giant foxtail",giant foxtail; [5],0
same,Morningglory plant response rating,morningglory; [1],3
same,Morningglory plant response rating,morningglory; [6],3
same,"Plant response rating, Morningglory",morningglory; [7],10
same,Morningglory plant response rating,morningglory; [2],0
same,Morningglory plant response rating,morningglory; [3],0
same,Morningglory plant response rating (0 to 10 scale),"morningglory; Preemergence, Rate 250 g/ha",0
same,Morningglory plant response rating,morningglory; [4],0
same,"Plant response rating, Morningglory",morningglory; [5],5
same,"Plant response rating, Redroot pigweed",pigweed; [8],0
same,Redroot pigweed plant response rating,pigweed; [2],0
same,Redroot pigweed plant response rating,pigweed; [3],0
same,Redroot pigweed plant response rating (0 to 10 scale),"pigweed; Preemergence, Rate 250 g/ha",0
same,Redroot pigweed plant response rating,pigweed; [4],5
same,"Plant response rating, Redroot pigweed",pigweed; [9],0
same,Rape plant response rating,rape; [1],2
same,Rape plant response rating,rape; [6],3
same,"Plant response rating, Rape",rape; [7],4
same,Rape plant response rating,rape; [2],0
same,Rape plant response rating,rape; [3],0
same,Rape plant response rating (0 to 10 scale),"rape; Preemergence, Rate 250 g/ha",0
same,Rape plant response rating,rape; [4],0
same,"Plant response rating, Rape",rape; [5],3
same,"Plant response rating, Soybean",soybean; [8],7
same,Soybean plant response rating,soybean; [2],0
same,Soybean plant response rating,soybean; [3],0
same,Soybean plant response rating (0 to 10 scale),"soybean; Preemergence, Rate 250 g/ha",0
same,Soybean plant response rating,soybean; [4],0
same,"Plant response rating, Soybean",soybean; [9],5
same,"Plant response rating, Sugarbeets",sugar beet; [8],0
same,Sugarbeets plant response rating,sugar beet; [2],0
same,Sugarbeets plant response rating,sugar beet; [3],0
same,Sugarbeets plant response rating (0 to 10 scale),"sugar beet; Preemergence, Rate 250 g/ha",0
same,Sugarbeets plant response rating,sugar beet; [4],0
same,"Plant response rating, Sugarbeets",sugar beet; [9],0
same,"Plant response rating, Velvetleaf",velvetleaf; [8],7
same,Velvetleaf plant response rating,velvetleaf; [2],0
same,Velvetleaf plant response rating,velvetleaf; [3],0
same,Velvetleaf plant response rating (0 to 10 scale),"velvetleaf; Preemergence, Rate 250 g/ha",0
same,Velvetleaf plant response rating,velvetleaf; [4],2
same,"Plant response rating, Velvetleaf",velvetleaf; [9],0
same,"Plant response rating, Wheat",wheat; [8],0
same,Wheat plant response rating,wheat; [2],0
same,Wheat plant response rating,wheat; [3],0
same,Wheat plant response rating (0 to 10 scale),"wheat; Preemergence, Rate 250 g/ha",0
same,Wheat plant response rating,wheat; [4],0
same,"Plant response rating, Wheat",wheat; [9],0
same,"Plant response rating, Wild oats",wild oat; [8],0
same,Wild oats plant response rating,wild oat; [2],0
same,Wild oats plant response rating,wild oat; [3],0
same,Wild oats plant response rating (0 to 10 scale),"wild oat; Preemergence, Rate 250 g/ha",0
same,Wild oats plant response rating,wild oat; [4],0
same,"Plant response rating, Wild oats",wild oat; [9],0
same,Nutsedge plant response rating,purple nutsedge; [1],0
same,Nutsedge plant response rating,purple nutsedge; [6],0
same,Nutsedge plant response rating,purple nutsedge; [2],0
same,Nutsedge plant response rating,purple nutsedge; [3],0
same,Nutsedge plant response rating (0 to 10 scale),"purple nutsedge; Preemergence, Rate 250 g/ha",0
same,Nutsedge plant response rating,purple nutsedge; [4],0
same,"Plant response rating, Nutsedge",purple nutsedge; [5],0
